Data reported in PubChem BioAssay AID256 (DTP/NCI, 2004).
Where “and” joins values, the source holds several entries; their conditions need not be identical. Equal entries are not always repeated. Toxic doses and inconclusive results are not listed. Rule for the calls: active = survival T/C of 150% or more; inactive = T/C below 125% in these data.

System: CD2F1 mice, L1210 leukemia ip, survival T/C
Assay: NCI In Vivo Anticancer Drug Screen. Data for tumor model L1210 Leukemia (intraperitoneal) in CD2F1 (CDF1) mice
Conditions: higher = longer survival
How it was run: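 Compound-dosed mice with transplantable tumor versus matched vehicle controls; endpoint ratio T/C reported.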

[1] = endpoint: mean survival time, dose: 50.0 mg/kg/injection, schedule: Q04DX003 (ip), vehicle: saline with Tween-80
[2] = endpoint: mean survival time, dose: 100.0 mg/kg/injection, schedule: Q04DX003 (ip), vehicle: saline with Tween-80
[3] = endpoint: mean survival time, dose: 200.0 mg/kg/injection, schedule: Q04DX003 (ip), vehicle: saline with Tween-80
[4] = endpoint: mean survival time, dose: 400.0 mg/kg/injection, schedule: Q04DX003 (ip), vehicle: saline with Tween-80
[5] = endpoint: mean survival time, dose: 12.5 mg/kg/injection, schedule: Q01DX009 (ip), vehicle: saline with Tween-80
[6] = endpoint: mean survival time, dose: 100.0 mg/kg/injection, schedule: Q01DX009 (ip), vehicle: saline with Tween-80
[7] = endpoint: mean survival time, dose: 200.0 mg/kg/injection, schedule: Q01DX009 (ip), vehicle: saline with Tween-80
[8] = endpoint: mean survival time, dose: 400.0 mg/kg/injection, schedule: Q01DX009 (ip), vehicle: saline with Tween-80
[9] = endpoint: mean survival time, dose: 50.0 mg/kg/injection, schedule: Q01DX009 (ip), vehicle: saline with Tween-80
[10] = endpoint: mean survival time, dose: 6.25 mg/kg/injection, schedule: Q01DX009 (ip), vehicle: saline with Tween-80
[11] = endpoint: mean survival time, dose: 25.0 mg/kg/injection, schedule: Q01DX009 (ip), vehicle: saline with Tween-80

Measured: T/C

CCN(CC)CCCNc1cc(OC)cc2nc3cc(Cl)ccc3nc12
inactive: endpoint: mean survival time, dose: 12.5 mg/kg/injection, schedule: Q01DX009 (ip), vehicle: suspension in saline 98 % of control | endpoint: mean survival time, dose: 25.0 mg/kg/injection, schedule: Q01DX009 (ip), vehicle: suspension in saline 100 % of control and 101 % of control | endpoint: mean survival time, dose: 50.0 mg/kg/injection, schedule: Q01DX009 (ip), vehicle: suspension in saline 98 % of control and 105 % of control | endpoint: mean survival time, dose: 100.0 mg/kg/injection, schedule: Q01DX009 (ip), vehicle: suspension in saline 101 % of control and 108 % of control | endpoint: mean survival time, dose: 200.0 mg/kg/injection, schedule: Q01DX009 (ip), vehicle: suspension in saline 112 % of control

O/N=C/c1ccc(O)cc1
inactive: [1] 94 % of control | [2] 91 % of control | [3] 97 % of control

COC(=O)C1C(C(=O)OC)C2C3C4C1C1C2C1C43 (stereo not given)
inactive: [2] 102 % of control | [3] 102 % of control | [4] 104 % of control

CCCCCCCCCCCCNC(=O)c1ccc[n+](Cc2ccc(Cl)c(Cl)c2)c1
inactive: [5] 98 % of control | endpoint: mean survival time, dose: 12.5 mg/kg/injection, schedule: Q04DX003 (ip), vehicle: saline sonified 98 % of control | endpoint: mean survival time, dose: 25.0 mg/kg/injection, schedule: Q04DX003 (ip), vehicle: saline sonified 98 % of control | endpoint: mean survival time, dose: 50.0 mg/kg/injection, schedule: Q04DX003 (ip), vehicle: saline sonified 95 % of control

CC(=O)Cc1nc(N)nc(Nc2ccc(Cl)c(Cl)c2)n1
inactive: endpoint: mean survival time, dose: 100.0 mg/kg/injection, schedule: Q01DX009 (ip), vehicle: saline 96 % of control | endpoint: mean survival time, dose: 200.0 mg/kg/injection, schedule: Q01DX009 (ip), vehicle: saline 97 % of control | endpoint: mean survival time, dose: 400.0 mg/kg/injection, schedule: Q01DX009 (ip), vehicle: saline 111 % of control

c1ccc(C[P+](c2ccccc2)(c2ccccc2)c2ccccc2)cc1
inactive: endpoint: mean survival time, dose: 0.63 mg/kg/injection, schedule: Q01DX009 (ip), vehicle: saline with Tween-80 89 % of control | endpoint: mean survival time, dose: 1.25 mg/kg/injection, schedule: Q01DX009 (ip), vehicle: saline with Tween-80 100 % of control | endpoint: mean survival time, dose: 2.5 mg/kg/injection, schedule: Q01DX009 (ip), vehicle: saline with Tween-80 93 % of control

COC(=O)C1(C)CCCC2(C)C3CC(O)C(C(C)C)=CC3(O)CCC12 (stereo not given)
inactive: [6] 100 % of control | [7] 96 % of control | [8] 86 % of control

Nc1ncnc2nc(-c3ccc(C(=O)c4cccc([N+](=O)[O-])c4)cc3)[nH]c12
inactive: endpoint: mean survival time, dose: 100.0 mg/kg/injection, schedule: Q04DX003 (ip), vehicle: Klucel (hydroxypropylcellulose) (HPC) 108 % of control | endpoint: mean survival time, dose: 200.0 mg/kg/injection, schedule: Q04DX003 (ip), vehicle: Klucel (hydroxypropylcellulose) (HPC) 102 % of control | endpoint: mean survival time, dose: 400.0 mg/kg/injection, schedule: Q04DX003 (ip), vehicle: Klucel (hydroxypropylcellulose) (HPC) 100 % of control

COc1ccc(/C=N/NC(=O)CNC(=O)Nc2ccc(F)cc2)cc1OC
inactive: [9] 96 % of control | [6] 92 % of control | [7] 92 % of control

O=C(C(=O)c1ccc(Cl)cc1)c1ccc(Cl)cc1
inactive: endpoint: mean survival time, dose: 6.25 mg/kg/injection, schedule: Q04DX003 (ip), vehicle: other 94 % of control | endpoint: mean survival time, dose: 12.5 mg/kg/injection, schedule: Q04DX003 (ip), vehicle: other 90 % of control | endpoint: mean survival time, dose: 25.0 mg/kg/injection, schedule: Q04DX003 (ip), vehicle: other 90 % of control

COc1ccc(C(C)N=CC(C)(C)C)cc1 (stereo not given)
inactive: [3] 100 % of control | [4] 88 % of control

O=C(COc1ccc(Cl)c(Cl)c1)Nc1ccc(Cl)cc1
inactive: [10] 98 % of control | [5] 98 % of control | [11] 98 % of control

CN(C)CCN(Cc1ccc(Cl)cc1)c1ccccn1
inactive: endpoint: mean survival time, dose: 3.13 mg/kg/injection, schedule: Q01DX009 (ip), vehicle: saline with Tween-80 95 % of control | [10] 109 % of control

Nc1nnc[se]1
inactive: endpoint: mean survival time, dose: 3.12 mg/kg/injection, schedule: Q01DX009 (ip), vehicle: saline with Tween-80 102 % of control and 104 % of control | [10] 109 % of control and 110 % of control | [5] 116 % of control and 117 % of control and 110 % of control | [11] 120 % of control | [9] 120 % of control and 98 % of control | [6] 105 % of control | endpoint: median survival time, dose: 6.25 mg/kg/injection, schedule: Q01DX009 (ip), vehicle: saline with Tween-80 106 % of control | endpoint: median survival time, dose: 12.5 mg/kg/injection, schedule: Q01DX009 (ip), vehicle: saline with Tween-80 109 % of control | endpoint: median survival time, dose: 25.0 mg/kg/injection, schedule: Q01DX009 (ip), vehicle: saline with Tween-80 108 % of control

COc1ccc(C2OC(=O)c3cccnc32)cc1OC (stereo not given)
inactive: endpoint: mean survival time, dose: 12.5 mg/kg/injection, schedule: Q01DX009 (ip), vehicle: other 90 % of control | endpoint: mean survival time, dose: 50.0 mg/kg/injection, schedule: Q01DX009 (ip), vehicle: other 87 % of control | endpoint: mean survival time, dose: 200.0 mg/kg/injection, schedule: Q01DX009 (ip), vehicle: other 88 % of control

Cc1cccc(Cl)c1OCC1CO1 (stereo not given)
inactive: endpoint: mean survival time, dose: 100.0 mg/kg/injection, schedule: Q01DX001 (ip), vehicle: saline 110 % of control | endpoint: mean survival time, dose: 200.0 mg/kg/injection, schedule: Q01DX001 (ip), vehicle: saline 110 % of control | endpoint: mean survival time, dose: 400.0 mg/kg/injection, schedule: Q01DX001 (ip), vehicle: saline 110 % of control

C/C(=N/NC(=O)c1ccccc1)c1ccc(O)cc1
inactive: [6] 96 % of control | [2] 96 % of control | [7] 97 % of control | [3] 98 % of control | [8] 91 % of control | [4] 100 % of control

CN(C)c1nc(-c2ccncc2)nc(N2CCOCC2)n1
inactive: endpoint: mean survival time, dose: 100.0 mg/kg/injection, schedule: Q04DX002 (ip), vehicle: saline with Tween-80 92 % of control

CC(C)C1C(=O)CCCC1=O
inactive: [2] 102 % of control | [3] 105 % of control | [4] 96 % of control

COc1cc2c(cc1OC)C(Cc1ccccc1)=NCC2
inactive: endpoint: mean survival time, dose: 50.0 mg/kg/injection, schedule: Q01DX009 (ip), vehicle: saline sonified 101 % of control | endpoint: mean survival time, dose: 100.0 mg/kg/injection, schedule: Q01DX009 (ip), vehicle: saline sonified 101 % of control | [2] 94 % of control | [3] 92 % of control

CCN(CC)C(=O)N1CC2CCC(C1)N2C
inactive: endpoint: mean survival time, dose: 100.0 mg/kg/injection, schedule: Q04DX003 (ip), vehicle: saline 100 % of control

COc1ccc(NC(=O)Nc2ccc(C)c([N+](=O)[O-])c2)c(OC)c1
inactive: [5] 97 % of control | [11] 103 % of control | [9] 88 % of control and 94 % of control

O=[N+]([O-])c1ccccc1NC(Nc1ccccc1[N+](=O)[O-])C(Cl)(Cl)Cl
inactive: [6] 98 % of control | [7] 101 % of control | [8] 101 % of control

CCn1c(=O)c2nc(Cl)n(C3OCC(OC(C)=O)C(OC(C)=O)C3OC(C)=O)c2n(CC)c1=O (stereo not given)
inactive: endpoint: mean survival time, dose: 12.5 mg/kg/injection, schedule: Q01DX005 (ip), vehicle: distilled water + Tween-80 96 % of control | endpoint: mean survival time, dose: 25.0 mg/kg/injection, schedule: Q01DX005 (ip), vehicle: distilled water + Tween-80 96 % of control | endpoint: mean survival time, dose: 50.0 mg/kg/injection, schedule: Q01DX005 (ip), vehicle: distilled water + Tween-80 96 % of control | endpoint: mean survival time, dose: 100.0 mg/kg/injection, schedule: Q01DX005 (ip), vehicle: distilled water + Tween-80 98 % of control | endpoint: mean survival time, dose: 200.0 mg/kg/injection, schedule: Q01DX005 (ip), vehicle: distilled water + Tween-80 98 % of control

CNC(=O)Oc1coc(CCl)cc1=O
inactive: [11] 98 % of control | [9] 107 % of control | [1] 97 % of control | [6] 101 % of control | [2] 101 % of control

Cc1cc(Oc2ccc(Cl)cc2NC(=O)Nc2ccc(Cl)c(Cl)c2)c(S(=O)(=O)O)cc1Cl
inactive: endpoint: mean survival time, dose: 100.0 mg/kg/injection, schedule: Q01DX001 (ip), vehicle: acetone 94 % of control | endpoint: mean survival time, dose: 200.0 mg/kg/injection, schedule: Q01DX001 (ip), vehicle: acetone 94 % of control | endpoint: mean survival time, dose: 400.0 mg/kg/injection, schedule: Q01DX001 (ip), vehicle: acetone 93 % of control

Cc1ccc(/C=C(/F)OC(C)(C)C)cc1
inactive: endpoint: mean survival time, dose: 50.0 mg/kg/injection, schedule: Q01DX001 (ip), vehicle: saline with Tween-80 97 % of control | endpoint: mean survival time, dose: 100.0 mg/kg/injection, schedule: Q01DX001 (ip), vehicle: saline with Tween-80 101 % of control | endpoint: mean survival time, dose: 200.0 mg/kg/injection, schedule: Q01DX001 (ip), vehicle: saline with Tween-80 100 % of control

Cc1cc2nc3c(nc2cc1C)-c1ccccc1C3=O
inactive: [2] 94 % of control | [3] 93 % of control | [4] 94 % of control
